Measured values as given in patent publication US20240270762A1, “PENICILLIN-BINDING PROTEIN INHIBITORS” (priority 2021, published 2024).
In brackets after ≈: the same amount, converted by molar mass.

Legend:
A. baumannii PBP1a = target: T1, A. baumannii PBP1a (Acinetobacter baumannii, UniProt A0ABX6CK30); assay: Bocillin-FL competition binding via gel filtration, A. baumannii PBP1a; conditions: competition binding assay using Bocillin-FL via gel filtration; read-out: A. baumannii PBP1a Potency
T1 sequence (A0ABX6CK30 1-851): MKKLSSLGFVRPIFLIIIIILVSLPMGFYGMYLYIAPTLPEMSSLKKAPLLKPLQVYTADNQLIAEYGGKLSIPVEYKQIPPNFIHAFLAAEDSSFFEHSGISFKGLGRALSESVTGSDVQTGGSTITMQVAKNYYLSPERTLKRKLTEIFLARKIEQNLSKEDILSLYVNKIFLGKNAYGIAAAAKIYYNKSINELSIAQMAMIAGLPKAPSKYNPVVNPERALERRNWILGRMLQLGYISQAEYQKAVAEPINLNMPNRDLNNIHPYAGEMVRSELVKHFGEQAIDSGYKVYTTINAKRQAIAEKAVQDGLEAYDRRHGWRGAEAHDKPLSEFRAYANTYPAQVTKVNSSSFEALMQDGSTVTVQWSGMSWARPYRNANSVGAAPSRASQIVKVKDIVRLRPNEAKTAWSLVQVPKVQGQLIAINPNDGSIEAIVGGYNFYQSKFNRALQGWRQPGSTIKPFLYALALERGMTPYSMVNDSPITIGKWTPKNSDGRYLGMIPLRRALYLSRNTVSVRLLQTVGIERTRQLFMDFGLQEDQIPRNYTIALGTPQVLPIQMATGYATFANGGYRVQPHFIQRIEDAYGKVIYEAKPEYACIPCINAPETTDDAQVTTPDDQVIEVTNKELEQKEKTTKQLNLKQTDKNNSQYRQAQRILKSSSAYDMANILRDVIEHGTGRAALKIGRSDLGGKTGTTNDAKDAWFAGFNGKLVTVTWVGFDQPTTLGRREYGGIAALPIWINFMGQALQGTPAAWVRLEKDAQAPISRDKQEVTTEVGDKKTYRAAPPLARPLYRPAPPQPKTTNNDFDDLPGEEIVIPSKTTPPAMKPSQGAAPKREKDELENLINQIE
How it was run: (§1)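 Enzyme was pre-incubated with rising inhibitor concentrations, then Bocillin-FL was added and incubated 15 minutes more. Bound probe was separated by gel filtration and fluorescence read. EC50 came from fitting fraction of PBP labelled versus inhibitor concentration to a Hill equation with ymin, ymax and n.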

A. baumannii PBP2 = A. baumannii PBP2 (Acinetobacter baumannii, UniProt D0C8Z9); assay: Bocillin-FL competition binding via gel filtration, A. baumannii PBP2
How it was run: as §1

A. baumannii ATCC 17978 = assay: microbe, parasite or virus in culture; assay type: cell-based; conditions: Acinetobacter baumannii, ATCC17978, read-out: Minimum inhibitory concentration (MIC), A. baumannii ATCC 17978
A. baumannii CDC-0033 = assay: microbe, parasite or virus in culture; assay type: cell-based; conditions: Acinetobacter baumannii, CDC0033, read-out: Minimum inhibitory concentration (MIC), A. baumannii CDC-0033
A. baumannii CDC-0045 = assay: microbe, parasite or virus in culture; assay type: cell-based; conditions: Acinetobacter baumannii, CDC0045, read-out: Minimum inhibitory concentration (MIC), A. baumannii CDC-0045
[1] = tested on: B. humptydooensis ATCC BAA-2767; assay: microbe, parasite or virus in culture; assay type: cell-based; conditions: Burkholderia humptydooensis, ATCCBAA2767, read-out: Minimum inhibitory concentration (MIC), B. humptydooensis ATCC BAA-2767
P. aeruginosa ATCC 27853 = assay: microbe, parasite or virus in culture; assay type: cell-based; conditions: Pseudomonas aeruginosa, ATCC27853, read-out: Minimum inhibitory concentration, P. aeruginosa ATCC 27853
A. baumannii ATCC 19606 = assay: microbe, parasite or virus in culture; assay type: cell-based; conditions: Acinetobacter baumannii, ATCC19606, read-out: Minimum inhibitory concentration (MIC), A. baumannii ATCC 19606
P. aeruginosa ATCC 35151 = assay: microbe, parasite or virus in culture; assay type: cell-based; conditions: Pseudomonas aeruginosa, ATCC35151, read-out: Minimum inhibitory concentration, P. aeruginosa ATCC 35151
A. baumannii 1258916 = assay: microbe, parasite or virus in culture; assay type: cell-based, Acinetobacter baumannii; conditions: Acinetobacter baumannii, 1258916, read-out: Minimum inhibitory concentration (MIC), A. baumannii 1258916
A. baumannii CDC-0036 = assay: microbe, parasite or virus in culture; assay type: cell-based; conditions: Acinetobacter baumannii, CDC0036, read-out: Minimum inhibitory concentration (MIC), A. baumannii CDC-0036

Chain of A. baumannii PBP2 (D0C8Z9 whole entry): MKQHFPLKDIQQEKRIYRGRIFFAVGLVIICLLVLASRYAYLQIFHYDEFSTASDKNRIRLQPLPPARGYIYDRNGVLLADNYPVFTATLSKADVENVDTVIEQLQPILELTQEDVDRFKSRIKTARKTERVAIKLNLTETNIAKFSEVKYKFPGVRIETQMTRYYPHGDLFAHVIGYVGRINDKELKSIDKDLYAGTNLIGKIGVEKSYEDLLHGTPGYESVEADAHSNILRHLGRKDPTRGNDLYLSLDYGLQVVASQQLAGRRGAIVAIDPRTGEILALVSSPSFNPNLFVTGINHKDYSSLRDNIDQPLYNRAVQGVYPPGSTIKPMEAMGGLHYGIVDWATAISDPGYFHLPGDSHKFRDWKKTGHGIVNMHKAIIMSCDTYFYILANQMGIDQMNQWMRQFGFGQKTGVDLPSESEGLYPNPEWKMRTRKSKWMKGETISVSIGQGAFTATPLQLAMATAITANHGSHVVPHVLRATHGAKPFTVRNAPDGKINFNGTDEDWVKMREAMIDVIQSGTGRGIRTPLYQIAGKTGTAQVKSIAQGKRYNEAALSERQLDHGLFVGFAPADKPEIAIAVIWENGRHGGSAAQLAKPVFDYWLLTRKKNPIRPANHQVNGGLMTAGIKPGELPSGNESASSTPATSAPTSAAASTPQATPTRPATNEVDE

## O=C(O)c1c(F)ccc2c1OB(O)[C@@H](NC(=O)[C@H](NC(=O)N1CCN(C3CCN(C(=O)c4ccc(O)c(O)c4Cl)CC3)C1=O)c1ccc(P(=O)(O)O)cc1)C2 [Example 494, (R)-3-((R)-2-(3-(1-(2-chloro-3,4-dihydroxybenzoyl)piperidin-4-yl)-2-oxoimidazolidine-1-carboxamido)-2-(4-phosphonophenyl)acetamido)-7-fluoro-2-hydroxy-3,4-dihydro-2H-benzo[e][1,2]oxaborinine-8-carboxylic acid]
A. baumannii PBP1a
  EC50: 50 to 250 µM
A. baumannii PBP2
  EC50: 10 to 50 µM
A. baumannii ATCC 17978
  MIC: < 1 µg/mL
A. baumannii CDC-0033
  MIC: < 1 µg/mL
A. baumannii CDC-0045
  MIC: < 1 µg/mL
[1]
  MIC: < 1 µg/mL
P. aeruginosa ATCC 27853
  MIC: < 1 µg/mL
A. baumannii ATCC 19606
  MIC: < 1 µg/mL
P. aeruginosa ATCC 35151
  MIC: < 1 µg/mL
A. baumannii 1258916
  MIC: < 1 µg/mL
A. baumannii CDC-0036
  MIC: < 1 µg/mL

## O=C(O)c1c(F)ccc2c1OB(O)[C@@H](NC(=O)[C@H](NC(=O)N1CCN(C3CCN(Cc4ccncc4)CC3)C1=O)c1cc(F)c(O)c(O)c1Cl)C2 [Example 493, (R)-3-((R)-2-(2-chloro-5-fluoro-3,4-dihydroxyphenyl)-2-(2-oxo-3-(1-(pyridin-4-ylmethyl)piperidin-4-yl)imidazolidine-1-carboxamido)acetamido)-7-fluoro-2-hydroxy-3,4-dihydro-2H-benzo[e][1,2]oxaborinine-8-carboxylic acid]
A. baumannii PBP1a
  EC50: < 10 µM
A. baumannii PBP2
  EC50: 10 to 50 µM
A. baumannii ATCC 17978
  MIC: < 1 µg/mL
A. baumannii CDC-0033
  MIC: 2 to 4 µg/mL (≈ 2.74 to 5.49 µM)
A. baumannii CDC-0045
  MIC: < 1 µg/mL
[1]
  MIC: < 1 µg/mL
P. aeruginosa ATCC 27853
  MIC: 2 to 4 µg/mL (≈ 2.74 to 5.49 µM)
A. baumannii ATCC 19606
  MIC: < 1 µg/mL
P. aeruginosa ATCC 35151
  MIC: < 1 µg/mL
A. baumannii 1258916
  MIC: < 1 µg/mL
A. baumannii CDC-0036
  MIC: < 1 µg/mL

## O=C(O)c1c(F)ccc2c1OB(O)[C@@H](NC(=O)[C@H](NC(=O)N1CCN(Cc3ccc(O)c(O)c3Cl)C(=O)C1=O)c1cc(F)c(P(=O)(O)O)c(F)c1)C2 [Example 502, (R)-3-((R)-2-(4-(2-chloro-3,4-dihydroxybenzyl)-2,3-dioxopiperazine-1-carboxamido)-2-(3,5-difluoro-4-phosphonophenyl)acetamido)-7-fluoro-2-hydroxy-3,4-dihydro-2H-benzo[e][1,2]oxaborinine-8-carboxylic acid]
A. baumannii PBP1a
  EC50: 10 to 50 µM
A. baumannii PBP2
  EC50: < 10 µM
A. baumannii ATCC 17978
  MIC: < 1 µg/mL
A. baumannii CDC-0033
  MIC: < 1 µg/mL
A. baumannii CDC-0045
  MIC: < 1 µg/mL
[1]
  MIC: < 1 µg/mL
P. aeruginosa ATCC 27853
  MIC: < 1 µg/mL
A. baumannii ATCC 19606
  MIC: < 1 µg/mL
P. aeruginosa ATCC 35151
  MIC: < 1 µg/mL
A. baumannii 1258916
  MIC: < 1 µg/mL
A. baumannii CDC-0036
  MIC: < 1 µg/mL

## O=C(O)c1c(F)ccc2c1OB(O)[C@@H](NC(=O)C(NC(=O)N1CCN(C3CCN(C(=O)Nc4ccc(Cl)c(O)c4F)CC3)C(=O)C1=O)c1cc(F)c(O)c(O)c1Cl)C2 (stereo partly drawn) [Example 489, (3R)-3-(2-(4-(1-((4-chloro-2-fluoro-3-hydroxyphenyl)carbamoyl)piperidin-4-yl)-2,3-dioxopiperazine-1-carboxamido)-2-(2-chloro-5-fluoro-3,4-dihydroxyphenyl)acetamido)-7-fluoro-2-hydroxy-3,4-dihydro-2H-benzo[e][1,2]oxaborinine-8-carboxylic acid]
A. baumannii PBP1a
  EC50: < 10 µM
A. baumannii PBP2
  EC50: < 10 µM
A. baumannii ATCC 17978
  MIC: < 1 µg/mL
A. baumannii CDC-0033
  MIC: 2 to 4 µg/mL (≈ 2.34 to 4.69 µM)
A. baumannii CDC-0045
  MIC: < 1 µg/mL
[1]
  MIC: 32 to 64 µg/mL (≈ 37.5 to 75 µM)
P. aeruginosa ATCC 27853
  MIC: 2 to 4 µg/mL (≈ 2.34 to 4.69 µM)
A. baumannii ATCC 19606
  MIC: < 1 µg/mL
P. aeruginosa ATCC 35151
  MIC: < 1 µg/mL
A. baumannii 1258916
  MIC: < 1 µg/mL
A. baumannii CDC-0036
  MIC: 2 to 4 µg/mL (≈ 2.34 to 4.69 µM)
